Source: PubChem BioAssay AID1259411 (Chemical Carcinogenesis Research Information System (CCRIS), 2018)
The source made the active and inactive calls. No rule for the calls is given here.

Test system: rodent carcinogenicity bioassays, tumor incidence
Experiment: CCRIS carcinogenicity studies
In short: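 NCI-built, expert-reviewed records of carcinogenicity and related test outcomes (mutagenicity, tumor promotion/inhibition) compiled from published and report sources, historical span 1985-2011, not updated.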

Structure (SMILES): c1ccc2c(c1)cc1ccc3cc4ccccc4c4ccc2c1c34
- carcinogen call (Species: HAMSTER, Route: SUBCUTANEOUS, Tumor Site: Type of Lesion: INJECTION SITE): active; positive
- carcinogen call (Species: MOUSE, Route: DERMAL, Tumor Site: Type of Lesion: INTEGUMENTARY SYSTEM (SKIN)): active; positive
- carcinogen call (Species: MOUSE, Route: SUBCUTANEOUS, Tumor Site: Type of Lesion: INJECTION SITE): active; positive

Structure (SMILES): O=Nc1ccc2ccccc2c1
- carcinogen call (Species: MOUSE, Strain/Sex: SWISS/MALE, Route: SUBCUTANEOUS, Dose: 100 UG IN GELATIN ON FIRST, THIRD AND FIFTH D OF LIFE, Tumor Site: Type of Lesion: LIVER: HEPATOMA): active; positive

Structure (SMILES): CC[N+]([O-])=NC
- carcinogen call (Species: RAT, Strain/Sex: F344/MALE, Route: ORAL, Dose: 0, 12, 48 MG/ML IN A NEUTRAL DEIONIZED DRINKING WATER SOLUTION 5 D/WK FOR 30 WK (TOTAL DOSE 36; 115 MG) (STUDY DURATION:, Dose: 0, 12, 48 MG/ML IN A NEUTRAL DEIONIZED DRINKING WATER SOLUTION 5 D/WK FOR 30 WK (TOTAL DOSE 36; 115 MG) (STUDY DURATION:, Tumor Site: Type of Lesion: LIVER: CARCINOMA, HEMANGIOSARCOMA, COLON: ADENOCARCINOMA, ADENOMA, ILEUM: TUMOR, Tumor Site: Type of Lesion: LIVER: CARCINOMA, HEMANGIOSARCOMA, COLON: ADENOCARCINOMA, ADENOMA, ILEUM: TUMOR): active; positive

Structure (SMILES): COC(=O)c1ccc(C)cc1C1=NC(C)(C(C)C)C(=O)N1 (stereo unspecified) (tested in a mixture with another compound)
- carcinogen call (Species: Mouse, Strain/Sex: CD-1/Female (65/Group), Route: Oral, Dose: 0, 130, 525, 2100 ppm 94.2% imazamethabenz-methyl in diet for 18 mo, study duration 18 mo, Dose: 0, 130, 525, 2100 ppm 94.2% imazamethabenz-methyl in diet for 18 mo, study duration 18 mo): inactive; negative
- carcinogen call (Species: Mouse, Strain/Sex: CD-1/Male (65/Group), Route: Oral, Dose: 0, 130, 525, 2100 ppm 94.2% imazamethabenz-methyl in diet for 18 mo, study duration 18 mo, Dose: 0, 130, 525, 2100 ppm 94.2% imazamethabenz-methyl in diet for 18 mo, study duration 18 mo): inactive; negative
- carcinogen call (Species: Rat, Strain/Sex: Crl:CD(SD)BR/Female (65/Group), Route: Oral, Dose: 0, 240, 1000, 4000 ppm 94.2% imazamethabenz-methyl in diet for 24 mo, study duration 24 mo, Dose: 0, 240, 1000, 4000 ppm 94.2% imazamethabenz-methyl in diet for 24 mo, study duration 24 mo): inactive; negative
- carcinogen call (Species: Rat, Strain/Sex: Crl:CD(SD)BR/Male (65/Group), Route: Oral, Dose: 0, 240, 1000, 4000 ppm 94.2% imazamethabenz-methyl in diet for 24 mo, study duration 24 mo, Dose: 0, 240, 1000, 4000 ppm 94.2% imazamethabenz-methyl in diet for 24 mo, study duration 24 mo): inactive; negative

Structure (SMILES): CN(C)c1ccccc1
- carcinogen call (Species: MOUSE, Strain/Sex: B6C3F1/FEMALE, Route: GAVAGE, Dose: 0, 15, 30 MG/KG IN CORN OIL FOR 103 WK (STUDY DURATION: 105 WK), Dose: 0, 15, 30 MG/KG IN CORN OIL FOR 103 WK (STUDY DURATION: 105 WK), Tumor Site: Type of Lesion: FORESTOMACH: SQUAMOUS CELL PAPILLOMA): equivocal
- carcinogen call (Species: MOUSE, Strain/Sex: B6C3F1/MALE, Route: GAVAGE, Dose: 0, 15, 30 MG/KG IN CORN OIL FOR 103 WK (STUDY DURATION: 105 WK), Dose: 0, 15, 30 MG/KG IN CORN OIL FOR 103 WK (STUDY DURATION: 105 WK)): inactive; negative
- carcinogen call (Species: RAT, Strain/Sex: F344/FEMALE, Route: GAVAGE, Dose: 0, 3, 30 MG/KG IN CORN OIL 5 D/WK FOR 103 WK (STUDY DURATION: 105 WK), Dose: 0, 3, 30 MG/KG IN CORN OIL 5 D/WK FOR 103 WK (STUDY DURATION: 105 WK)): inactive; negative
- carcinogen call (Species: RAT, Strain/Sex: F344/MALE, Route: GAVAGE, Dose: 0, 3, 30 MG/KG IN CORN OIL 5 D/WK FOR 103 WK (STUDY DURATION: 105 WK), Dose: 0, 3, 30 MG/KG IN CORN OIL 5 D/WK FOR 103 WK (STUDY DURATION: 105 WK), Tumor Site: Type of Lesion: SPLEEN: SARCOMA, SARCOMA OR OSTEOSARCOMA): active; positive

Structure (SMILES): Cc1c(O)cc2c(c1C)OC(C)(CCCC(C)CCCC(C)CCCC(C)C)CC2 (stereo unspecified)
- carcinogen call (Species: MOUSE, Strain/Sex: 6HF1/MALE, Route: ORAL, Dose: 0, 5% IN BASAL DIET FOR 104 WK (STUDY DURATION: 104 WK), Tumor Site: Type of Lesion: LIVER: TUMOR): active; positive

Structure (SMILES): CCOc1ccc(NC(C)=O)cc1N
- carcinogen call (Species: MOUSE, Strain/Sex: B6C3F1/FEMALE, Route: ORAL, Dose: 0, 0.4, 0.8% OF DIET, Dose: 0, 0.4, 0.8% OF DIET): inactive; negative
- carcinogen call (Species: MOUSE, Strain/Sex: B6C3F1/MALE, Route: ORAL, Dose: 0, 0.4, 0.8% OF DIET, Dose: 0, 0.4, 0.8% OF DIET, Tumor Site: Type of Lesion: THYROID GLAND: FOLLICULAR CELL ADENOMA, CARCINOMA, ADENOCARCINOMA, ADENOMA, LUNG: ALVEOLAR/BRONCHIOLAR ADENOMA, CARCINOM): active; positive
- carcinogen call (Species: RAT, Strain/Sex: F344/FEMALE, Route: ORAL, Dose: 0, 0.4, 1.5% OF DIET, Dose: 0, 0.4, 1.5% OF DIET): inactive; negative
- carcinogen call (Species: RAT, Strain/Sex: F344/MALE, Route: ORAL, Dose: 0, 0.4, 1.5% OF DIET, Dose: 0, 0.4, 1.5% OF DIET): inactive; negative

Structure (SMILES): COC(=O)c1cc(Oc2ccc(Cl)cc2Cl)ccc1[N+](=O)[O-]
- carcinogen call (Species: Mouse, Strain/Sex: B6C3F1/Female (60/sex/group), Route: Oral, Dose: 0, 50, 200, 1000 ppm in feed for 24 mo, Dose: 0, 50, 200, 1000 ppm in feed for 24 mo): inactive; negative; purity 98.3%
- carcinogen call (Species: Mouse, Strain/Sex: B6C3F1/Male (60/sex/group), Route: Oral, Dose: 0, 50, 200, 1000 ppm in feed for 24 mo, Dose: 0, 50, 200, 1000 ppm in feed for 24 mo, Tumor Site: Type of Lesion: Liver: Significant increase in hepatic adenomas and carcinomas at highest dose): active; positive; purity 98.3%
- carcinogen call (Species: Rat, Strain/Sex: Sprague-Dawley/Female (50/sex/group), Route: Oral, Dose: 0, 500, 1580, 5000 ppm in feed for 104 wk, Dose: 0, 500, 1580, 5000 ppm in feed for 104 wk): inactive; negative; purity 98%
- carcinogen call (Species: Rat, Strain/Sex: Sprague-Dawley/Male (50/sex/group), Route: Oral, Dose: 0, 500, 1580, 5000 ppm in feed for 104 wk, Dose: 0, 500, 1580, 5000 ppm in feed for 104 wk): inactive; negative; purity 98%

Structure (SMILES): CC(O)CCl (stereo unspecified)
- carcinogen call (Species: MOUSE, Strain/Sex: B6C3F1/FEMALE, Route: ORAL, Dose: 0, 250, 500, 1000 PPM IN DRINKING WATER FOR DURATION OF STUDY (STUDY DURATION: 2 YR), Dose: 0, 250, 500, 1000 PPM IN DRINKING WATER FOR DURATION OF STUDY (STUDY DURATION: 2 YR)): inactive; negative
- carcinogen call (Species: MOUSE, Strain/Sex: B6C3F1/MALE, Route: ORAL, Dose: 0, 250, 500, 1000 PPM IN DRINKING WATER FOR DURATION OF STUDY (STUDY DURATION: 2 YR), Dose: 0, 250, 500, 1000 PPM IN DRINKING WATER FOR DURATION OF STUDY (STUDY DURATION: 2 YR)): inactive; negative
- carcinogen call (Species: RAT, Strain/Sex: F344/FEMALE, Route: ORAL, Dose: 10, 150, 325, 650 PPM IN DRINKING WATER FOR DURATION OF STUDY (STUDY DURATION: 2 YR), Dose: 10, 150, 325, 650 PPM IN DRINKING WATER FOR DURATION OF STUDY (STUDY DURATION: 2 YR)): inactive; negative
- carcinogen call (Species: RAT, Strain/Sex: F344/MALE, Route: ORAL, Dose: 0, 150, 325, 650 PPM IN DRINKING WATER FOR DURATION OF STUDY (STUDY DURATION: 2 YR), Dose: 0, 150, 325, 650 PPM IN DRINKING WATER FOR DURATION OF STUDY (STUDY DURATION: 2 YR)): inactive; negative

Structure (SMILES): CC(CCC(=O)N(CC(=O)O)N=O)C1CCC2C3C(O)CC4C[C@H](O)CCC4(C)C3C[C@H](O)C12C (stereo partly specified)
- carcinogen call (Species: RAT, Strain/Sex: F344/MALE, Route: GAVAGE, Dose: 0, 10 MG IN 50 µL DMSO 5 D/WK FOR 6 WK (STUDY DURATION: 108 WK), Tumor Site: Type of Lesion: LIVER: CARCINOMA): active; positive

Structure (SMILES): IC(I)I
- carcinogen call (Species: MOUSE, Strain/Sex: B6C3F1/FEMALE, Route: GAVAGE, Dose: 0, 47, 93 MG/KG, TWA, Dose: 0, 47, 93 MG/KG, TWA): inactive; negative
- carcinogen call (Species: MOUSE, Strain/Sex: B6C3F1/MALE, Route: GAVAGE, Dose: 0, 47, 93 MG/KG, TWA, Dose: 0, 47, 93 MG/KG, TWA): inactive; negative
- carcinogen call (Species: RAT, Strain/Sex: OSBORNE-MENDEL/FEMALE, Route: GAVAGE, Dose: 0, 27, 55 MG/KG, TWA, Dose: 0, 27, 55 MG/KG, TWA): inactive; negative
- carcinogen call (Species: RAT, Strain/Sex: OSBORNE-MENDEL/MALE, Route: GAVAGE, Dose: 0, 71, 142 MG/KG, TWA, Dose: 0, 71, 142 MG/KG, TWA): inactive; negative
